Where two headings read alike, the source gives them in different places.
Experiments:
[1] = system: fat cells in rat epididymis adipose tissue; experiment: Antilipolytic activity: glycerol released from IL-1β-treated rat fat cells; type: cell-based; details: read-out: antilipolytic concentration IC50
Protocol: In accordance with the method of Green et al. [Endocrinology, 134, 2581-2588 (1994)], the antilipolytic activity of the compound of the present invention was evaluated by quantitating the glycerol released from fat cells in rat epididymis adipose tissue.
Thus, the rat epididymis adipose tissue was isolated, cut into pieces with a pair of scissors, and digested into fat cells by agitating in collagenase-containing phosphate buffer for 1 hour. To a culture solution containing fat cells was added 10 ng/ml of IL-1β (manufactured by Pharmingen, PM-19101V). Then, in treatment groups, solutions of compound (2) in N,N-dimethylformamide at graded concentrations were respectively added. After 24 hours, the supernatant was recovered and the glycerol therein was quantitated with an assay kit (manufactured by Sigma, 337-A). The amount of released glycerol in each group treated with compound (2) relative to that in the control group was determined to find the inhibition rate and the 50% inhibition concentration IC50 of the compound was calculated. The antilipolytic concentration IC50 value of compound (2) was 4 nM.
The antilipolytic activity of indomethacin was evaluated by the same method as in Test Example 1. The antilipolytic concentration IC50 value of indomethacin was not less than 10 mM.

[2] = system: tumor-bearing mice (mouse colon cancer cell line Colon 26); experiment: Weight loss inhibitory activity in tumor-bearing mice (Colon 26 cachexia model); type: in vivo; details: CDF1 mice
Protocol: Using the mouse colon cancer cell line Colon 26 (Tanaka et al., Cancer Research, 50, 4528-4532 (1990)), which is a system known to be high in the reproducibility of cancer cachectic symptoms, the inhibitory effect of the compound of the present invention on lipolysis and body weight loss was evaluated.
Thus, 1×10^6 Colon 26 cells were transplanted sub-dermaly in 4-week-old CDF1 mice. On day 14 after transplantation, the mice were divided into groups according to tumor size. A 5% (w/v) gum arabic suspension containing compound (2) was administered orally in a dose of 1.0 mg/kg to one group of mice and, as a control, a 5% (w/v) gum arabic suspension was similarly administered to another group, once daily for 7 days in each case. An additional group of mice was not transplanted with Colon 26 cells (normal group). On days 14, 18 and 21 after transplantation, the mice were weighed. On day 22 after transplantation, each mouse was autopsied and the epididymis adipose tissue was isolated and weighed. Changes in mouse body weight and adipose tissue weight are shown in Table 1 and Table 2, respectively.

Row | IC50 ([1]; inhibition of glycerol release, 10 ng/ml IL-1β, 24 hours) [µM] | IC50 ([1]; same method as Test Example 1 (glycerol release, IL-1β, 24 hours)) [µM] | SMILES | body weight of tumor-bearing mice, 21st Day after transplantation ([2]; 1.0 mg/kg orally once daily for 7 days from day 14) [g] | body weight of tumor-bearing mice, 18th Day after transplantation ([2]; 1.0 mg/kg orally once daily from day 14) [g] | body weight of tumor-bearing mice, 14th Day after transplantation ([2]; day 14 (grouping, start of dosing), 1.0 mg/kg orally once daily for 7 days) [g]
1 | 0.004 | – | Cc1oc(-c2ccccc2)nc1C(O)COc1ccc(CC2SC(=O)NC2=O)cc1 (centres unmarked) [compound (2), 5-[4-[2-hydroxy-2-(5-methyl-2-phenyl-4-oxazolyl)ethoxy]benzyl]-2,4-thiazolidinedione] | 25.6 | 26.3 | 26.3
2 | – | ≥ 10000 | COc1ccc2c(c1)c(CC(=O)O)c(C)n2C(=O)c1ccc(Cl)cc1 [indomethacin, reference compound] | – | – | –
